Laboratory results published in the NIST ThermoML archive (doi:10.1021/je5005752).

Assay: xn = mol fraction of the nth substance listed
Conditions: 101 kPa, Liquid; for viscosity: Falling or rolling sphere viscometry; for mass density: Vibrating tube method

CCCC(=O)OCC [ethyl butanoate] + CC(C)CCO
Conditions	mass density [kg/m3]	viscosity [mPa·s]
288.15 K, x1 = 0.1001	820.68	3.238
288.15 K, x1 = 0.2	828.59	2.255
288.15 K, x1 = 0.3	836.24	1.754
288.15 K, x1 = 0.4	843.64	1.414
288.15 K, x1 = 0.5	850.77	1.184
288.15 K, x1 = 0.6	857.71	1.031
288.15 K, x1 = 0.7	864.47	0.9059
288.15 K, x1 = 0.7999	871.18	0.8213
288.15 K, x1 = 0.8995	877.79	0.7679
288.15 K, x1 = 1	884.16	0.7224
293.15 K, x1 = 0.1001	816.74	2.813
293.15 K, x1 = 0.2	824.48	2
293.15 K, x1 = 0.3	831.95	1.575
293.15 K, x1 = 0.4	839.17	1.285
293.15 K, x1 = 0.5	846.15	1.086
293.15 K, x1 = 0.6	852.95	0.953
293.15 K, x1 = 0.7	859.56	0.8432
293.15 K, x1 = 0.7999	866.14	0.7689
293.15 K, x1 = 0.8995	872.63	0.7214
293.15 K, x1 = 1	878.9	0.6808
298.15 K, x1 = 0.1001	812.8	2.462
298.15 K, x1 = 0.2	820.34	1.785
298.15 K, x1 = 0.3	827.63	1.422
298.15 K, x1 = 0.4	834.7	1.172
298.15 K, x1 = 0.5	841.51	0.9993
298.15 K, x1 = 0.6	848.16	0.8831
298.15 K, x1 = 0.7	854.64	0.7864
298.15 K, x1 = 0.7999	861.09	0.7207
298.15 K, x1 = 0.8995	867.46	0.6784
298.15 K, x1 = 1	873.62	0.643
303.15 K, x1 = 0.1001	808.84	2.164
303.15 K, x1 = 0.2	816.19	1.598
303.15 K, x1 = 0.3	823.31	1.288
303.15 K, x1 = 0.4	830.2	1.073
303.15 K, x1 = 0.5	836.86	0.9221
303.15 K, x1 = 0.6	843.37	0.8204
303.15 K, x1 = 0.7	849.71	0.7345
303.15 K, x1 = 0.7999	856.02	0.6764
303.15 K, x1 = 0.8995	862.27	0.6389
303.15 K, x1 = 1	868.33	0.6072
308.15 K, x1 = 0.1001	804.86	1.914
308.15 K, x1 = 0.2	812.02	1.439
308.15 K, x1 = 0.3	818.96	1.172
308.15 K, x1 = 0.4	825.69	0.9851
308.15 K, x1 = 0.5	832.19	0.853
308.15 K, x1 = 0.6	838.55	0.7639
308.15 K, x1 = 0.7	844.75	0.6872
308.15 K, x1 = 0.7999	850.94	0.6355
308.15 K, x1 = 0.8995	857.07	0.6026
308.15 K, x1 = 1	863.02	0.5736
313.15 K, x1 = 0.1001	800.85	1.7
313.15 K, x1 = 0.2	807.82	1.302
313.15 K, x1 = 0.3	814.58	1.069
313.15 K, x1 = 0.4	821.15	0.9071
313.15 K, x1 = 0.5	827.5	0.7907
313.15 K, x1 = 0.6	833.71	0.7128
313.15 K, x1 = 0.7	839.78	0.6437
313.15 K, x1 = 0.7999	845.83	0.5975
313.15 K, x1 = 0.8995	851.85	0.569
313.15 K, x1 = 1	857.7	0.5425
318.15 K, x1 = 0.1001	796.81	1.516
318.15 K, x1 = 0.2	803.6	1.181
318.15 K, x1 = 0.3	810.18	0.9787
318.15 K, x1 = 0.4	816.58	0.8373
318.15 K, x1 = 0.5	822.78	0.7346
318.15 K, x1 = 0.6	828.85	0.6658
318.15 K, x1 = 0.7	834.78	0.6038
318.15 K, x1 = 0.7999	840.71	0.5626
318.15 K, x1 = 0.8995	846.61	0.538
318.15 K, x1 = 1	852.36	0.5132
323.15 K, x1 = 0.1001	792.73	1.371
323.15 K, x1 = 0.2	799.34	1.08
323.15 K, x1 = 0.3	805.76	0.8983
323.15 K, x1 = 0.4	811.99	0.7743
323.15 K, x1 = 0.5	818.03	0.6838
323.15 K, x1 = 0.6	823.96	0.6195
323.15 K, x1 = 0.7	829.75	0.5672
323.15 K, x1 = 0.7999	835.56	0.5303
323.15 K, x1 = 0.8995	841.34	0.5071
323.15 K, x1 = 1	847	0.487

CCCC(=O)OCC [ethyl butanoate] + CC(C)CO
Conditions	mass density [kg/m3]	viscosity [mPa·s]
288.15 K, x1 = 0.1	816.01	2.899
288.15 K, x1 = 0.2001	825.5	2
288.15 K, x1 = 0.3001	834.2	1.516
288.15 K, x1 = 0.3999	842.57	1.24
288.15 K, x1 = 0.5	850.43	1.057
288.15 K, x1 = 0.5999	857.77	0.9319
288.15 K, x1 = 0.7001	864.75	0.8287
288.15 K, x1 = 0.8001	871.45	0.785
288.15 K, x1 = 0.8997	877.93	0.7449
288.15 K, x1 = 1	884.16	0.7224
293.15 K, x1 = 0.1	811.92	2.51
293.15 K, x1 = 0.2001	821.21	1.768
293.15 K, x1 = 0.3001	829.72	1.363
293.15 K, x1 = 0.3999	837.92	1.129
293.15 K, x1 = 0.5	845.64	0.9727
293.15 K, x1 = 0.5999	852.86	0.8638
293.15 K, x1 = 0.7001	859.73	0.7883
293.15 K, x1 = 0.8001	866.33	0.7356
293.15 K, x1 = 0.8997	872.73	0.7006
293.15 K, x1 = 1	878.9	0.6808
298.15 K, x1 = 0.1	807.82	2.19
298.15 K, x1 = 0.2001	816.89	1.571
298.15 K, x1 = 0.3001	825.21	1.233
298.15 K, x1 = 0.3999	833.26	1.032
298.15 K, x1 = 0.5	840.84	0.8977
298.15 K, x1 = 0.5999	847.92	0.8022
298.15 K, x1 = 0.7001	854.69	0.7366
298.15 K, x1 = 0.8001	861.2	0.6907
298.15 K, x1 = 0.8997	867.52	0.6599
298.15 K, x1 = 1	873.62	0.643
303.15 K, x1 = 0.1	803.67	1.92
303.15 K, x1 = 0.2001	812.54	1.406
303.15 K, x1 = 0.3001	820.68	1.118
303.15 K, x1 = 0.3999	828.56	0.9462
303.15 K, x1 = 0.5	836	0.8309
303.15 K, x1 = 0.5999	842.97	0.7472
303.15 K, x1 = 0.7001	849.63	0.6895
303.15 K, x1 = 0.8001	856.05	0.6488
303.15 K, x1 = 0.8997	862.29	0.6217
303.15 K, x1 = 1	868.33	0.6072
308.15 K, x1 = 0.1	799.49	1.693
308.15 K, x1 = 0.2001	808.15	1.262
308.15 K, x1 = 0.3001	816.12	1.018
308.15 K, x1 = 0.3999	823.84	0.8702
308.15 K, x1 = 0.5	831.14	0.7709
308.15 K, x1 = 0.5999	837.99	0.6967
308.15 K, x1 = 0.7001	844.55	0.6458
308.15 K, x1 = 0.8001	850.88	0.6101
308.15 K, x1 = 0.8997	857.04	0.5862
308.15 K, x1 = 1	863.02	0.5736
313.15 K, x1 = 0.1	795.27	1.501
313.15 K, x1 = 0.2001	803.72	1.137
313.15 K, x1 = 0.3001	811.51	0.9295
313.15 K, x1 = 0.3999	819.09	0.8021
313.15 K, x1 = 0.5	826.25	0.7166
313.15 K, x1 = 0.5999	832.98	0.6507
313.15 K, x1 = 0.7001	839.44	0.6059
313.15 K, x1 = 0.8001	845.69	0.5742
313.15 K, x1 = 0.8997	851.78	0.5531
313.15 K, x1 = 1	857.7	0.5425
318.15 K, x1 = 0.1	791	1.337
318.15 K, x1 = 0.2001	799.25	1.029
318.15 K, x1 = 0.3001	806.87	0.8513
318.15 K, x1 = 0.3999	814.29	0.7413
318.15 K, x1 = 0.5	821.33	0.6676
318.15 K, x1 = 0.5999	827.95	0.6086
318.15 K, x1 = 0.7001	834.31	0.569
318.15 K, x1 = 0.8001	840.47	0.5409
318.15 K, x1 = 0.8997	846.5	0.5224
318.15 K, x1 = 1	852.36	0.5132
323.15 K, x1 = 0.1	786.67	1.219
323.15 K, x1 = 0.2001	794.73	0.9403
323.15 K, x1 = 0.3001	802.18	0.785
323.15 K, x1 = 0.3999	809.46	0.6914
323.15 K, x1 = 0.5	816.36	0.6257
323.15 K, x1 = 0.5999	822.87	0.5716
323.15 K, x1 = 0.7001	829.14	0.5382
323.15 K, x1 = 0.8001	835.23	0.5126
323.15 K, x1 = 0.8997	841.18	0.4958
323.15 K, x1 = 1	847	0.487
